Experimental data taken from US7205311B2, “Therapeutic acridone and acridine compounds” (Cancer Research Technology Limited, priority 2002, dated 2007).

Columns and labels:
telomerase = experiment: Modified telomeric repeat amplification protocol (TRAP) assay, cell-free; type: biochemical; settings: extracts from A2780 human ovarian carcinoma cells, salts, read-out: telIC50
Protocol: The ability of compounds to inhibit telomerase in a cell-free assay was assessed with a modified TRAP assay using extracts from exponentially growing A2780 human ovarian carcinoma cells. The TRAP assay was performed in 2 steps: (a) telomerase-mediated extension of the forward primer (TS: 5′-AATCCGTCGAGCAGAGTT, Oswel Ltd., Southampton, UK) contained in a 40 μL reaction mix comprising TRAP buffer (20 mM Tris-HCl (pH 8.3), 68 mM KCl, 1.5 mM MgCl2, 1 mM EGTA, 0.05% v/v Tween 20), 0.05 μg bovine serum albumin, 50 μM of each deoxynucleotide triphosphate, 0.1 μg TS primer, and […] of [α-^32P]dCTP (Amersham pic, UK). Protein (40 ng or 20 ng) was then incubated with the reaction mix+agent (acid addition and quaternary dimethiodide salts) at final concentrations of up to 50 μM for 20 min at 25° C. A lysis buffer (no protein) control, heat-inactivated protein control, and 50% protein (20 ng or 10 ng) control were included in each assay; and (b) while heating at 80° C. in a PCR block of a thermal cycler (Hybaid, UK) for 5 min to inactivate telomerase activity, 0.1 μg of reverse CX primer (3′-[…]-5′) and 2 Units of Taq DNA polymerase (“red hot”, Advanced Biotechnologies) were added. A 3-step PCR was then performed: 94° C. for 30 s, 50° C. for 30 s, and 72° C. for 1 min for 31 cycles. Telomerase-extended PCR products in the presence or absence of compounds were then determined either by electrophoretic separation using 8% w/w acrylamide denaturing gels and analysis by phosphorimaging or autoradiography, or by harvesting on Whatman filters (25 mm glass microfibre) and analysis by liquid scintillation counting.

[1] = Growth inhibition, SRB assay, mean over the four cell lines; type: cell-based; settings: human, mean of A2780, CH1, SKOV-3, A431, 96 hr incubation, salts, read-out: Cytotoxicity - IC50, mean value for the four (4) cell lines
Protocol: (§1) Growth inhibition was measured in three human ovarian carcinoma cell lines (A2780, CH1, and SKOV-3) and one human cervix carcinoma cell line (A431) using the sulforhodamine B (SRB) assay. Briefly, between 3000 and 6000 cells were seeded into the wells of 96-well microtiter plates and allowed to attach overnight. Compounds (acid addition and quaternary dimethiodide salts) were dissolved at 500 μM in water and immediately added to wells in quadruplicate at final concentrations of 0.05, 0.25, 1, 5 and 25 μM. Following an incubation period of 96 hr, remaining cells were fixed with ice-cold 10% w/v trichloroacetic acid (30 min) and stained with 0.4% SRB in 1% v/v acetic acid (15 min). Mean absorbance at 540 nm for each drug concentration was expressed as a percentage of the control untreated well absorbance, and IC50 values (concentration required to inhibit cell growth by 50%) were determined for each agent.

[2] = Growth inhibition, sulforhodamine B (SRB) assay; type: cell-based; settings: human, salts
Protocol: as §1

[3] = A431 cervix carcinoma cells, A431, 96 hr incubation, read-out: Cytotoxicity - IC50 A431
[4] = A2780 ovarian carcinoma cells, A2780, 96 hr incubation, read-out: Cytotoxicity - IC50 A2780
[5] = CH1 ovarian carcinoma cells, CH1, 96 hr incubation, read-out: Cytotoxicity - IC50 CH1
[6] = SKOV-3 ovarian carcinoma cells, SKOV-3, 96 hr incubation, read-out: Cytotoxicity - IC50 SKOV-3

## c1cc2cc3ccc(NCCCCN4CCCC4)cc3nc2cc1NCCCCN1CCCC1 [SB-ACI-26, 3,6-Bis[(4-pyrolidino)butylamino]acridine]
telomerase
  IC50: 153 nM
[1]
  IC50 at 96 h: 2500 nM

## CCN(CC)CCNc1ccc2cc3ccc(NCCN(CC)CC)cc3nc2c1 [SB-ACI-05, 3,6-Bis[(N,N-diethylaminoethyl)amino]acridine]
telomerase
  IC50: 540 nM
[2]; [3]
  IC50 at 96 h: 200 nM
[2]; [4]
  IC50 at 96 h: 100 nM
[2]; [5]
  IC50 at 96 h: 200 nM
[2]; [6]
  IC50 at 96 h: 700 nM

## CN(C)CCNc1ccc2cc3ccc(NCCN(C)C)cc3nc2c1 [SB-ACI-10, 3,6-Bis[(N,N-dimethylaminoethyl)amino]acridine]
telomerase
  IC50: 480 nM
[2]; [3]
  IC50 at 96 h: 200 nM
[2]; [4]
  IC50 at 96 h: 200 nM
[2]; [5]
  IC50 at 96 h: 100 nM
[2]; [6]
  IC50 at 96 h: 200 nM

## CCN(CC)CCCCNc1ccc2cc3ccc(NCCCCN(CC)CC)cc3nc2c1 [SB-ACI-28, 3,6-Bis[(4-diethylamino)butylamino]-acridine]
telomerase
  IC50: 205 nM
[1]
  IC50 at 96 h: 6300 nM

## c1ccc(NCCCNc2ccc3cc4ccc(NCCCNc5ccccc5)cc4nc3c2)cc1 [SB-ACI-27, 3,6-Bis[(3-phenylamino)propylamino]acridine]
telomerase
  IC50: 16800 nM
[1]
  IC50 at 96 h: 1700 nM

## CC(C)N(CCNc1ccc2cc3ccc(NCCN(C(C)C)C(C)C)cc3nc2c1)C(C)C [SB-ACI-06, 3,6-Bis[(N,N-diisoproyplaminoethyl)amino]acridine]
telomerase
  IC50: 590 nM
[2]; [3]
  IC50 at 96 h: 1000 nM
[2]; [4]
  IC50 at 96 h: 400 nM
[2]; [5]
  IC50 at 96 h: 600 nM
[2]; [6]
  IC50 at 96 h: 1300 nM

## c1cc2cc3ccc(NCCCN4CCCC4)cc3nc2cc1NCCCN1CCCC1 [SB-ACI-23, 3,6-Bis[(3-pyrolidino)propylamino]acridine]
telomerase
  IC50: 181 nM
[1]
  IC50 at 96 h: 1600 nM

## c1cc2cc3ccc(NCCCN4CCCCC4)cc3nc2cc1NCCCN1CCCCC1 [SB-ACI-25, 3,6-Bis[(3-piperidino)propylamino]acridine]
telomerase
  IC50: 218 nM
[1]
  IC50 at 96 h: 500 nM

## CN(C)CCCNc1ccc2cc3ccc(NCCCN(C)C)cc3nc2c1 [SB-ACI-04, 3,6-Bis[(N,N-dimethylaminopropyl)amino]acridine]
telomerase
  IC50: 200 nM
[2]; [3]
  IC50 at 96 h: 700 nM
[2]; [4]
  IC50 at 96 h: 1800 nM
[2]; [5]
  IC50 at 96 h: 2000 nM
[2]; [6]
  IC50 at 96 h: 3900 nM

## CCN(CC)CCCNc1ccc2cc3ccc(NCCCN(CC)CC)cc3nc2c1 [SB-ACI-24, 3,6-Bis[(3-diethylamino)propylamino]acridine]
telomerase
  IC50: 222 nM
[1]
  IC50 at 96 h: 1800 nM
